The target in series [1] is T1, α1A (rat submaxillary gland) (Rattus norvegicus, UniProt P43140).
T1 construct: α1A (rat submaxillary gland); from tissue; host or cells: rat submaxillary gland
T1 sequence (P43140 1-466): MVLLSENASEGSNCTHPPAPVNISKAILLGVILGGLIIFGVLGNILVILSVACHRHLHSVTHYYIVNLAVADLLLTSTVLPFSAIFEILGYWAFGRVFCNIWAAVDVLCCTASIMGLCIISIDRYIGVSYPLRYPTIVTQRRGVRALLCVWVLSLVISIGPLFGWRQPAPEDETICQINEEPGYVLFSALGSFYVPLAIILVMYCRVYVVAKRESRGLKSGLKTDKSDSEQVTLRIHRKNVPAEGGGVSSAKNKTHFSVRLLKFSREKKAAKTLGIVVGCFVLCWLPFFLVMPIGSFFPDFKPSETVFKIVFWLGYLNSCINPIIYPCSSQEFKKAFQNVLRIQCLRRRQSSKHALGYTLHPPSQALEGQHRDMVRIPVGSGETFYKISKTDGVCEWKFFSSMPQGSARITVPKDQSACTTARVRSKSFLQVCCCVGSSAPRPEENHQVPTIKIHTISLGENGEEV
The series is described as follows: Radioligand binding with [3H]-prazosin, α1A. To be noted: rat submaxillary gland, [3H]-prazosin. The method in brief: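 Radioligand binding with [3H]-prazosin: α1A from rat submaxillary gland; α1b hamster receptor and α1d rat receptor, each expressed in mouse fibroblasts.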

For series [2], the target named is T2, α1B (rat spleen) (Rattus norvegicus, UniProt P15823).
T2 construct: α1B (rat spleen) and α1D (rat aorta) receptors; from tissue; host or cells: rat spleen
T2 sequence (P15823 1-515): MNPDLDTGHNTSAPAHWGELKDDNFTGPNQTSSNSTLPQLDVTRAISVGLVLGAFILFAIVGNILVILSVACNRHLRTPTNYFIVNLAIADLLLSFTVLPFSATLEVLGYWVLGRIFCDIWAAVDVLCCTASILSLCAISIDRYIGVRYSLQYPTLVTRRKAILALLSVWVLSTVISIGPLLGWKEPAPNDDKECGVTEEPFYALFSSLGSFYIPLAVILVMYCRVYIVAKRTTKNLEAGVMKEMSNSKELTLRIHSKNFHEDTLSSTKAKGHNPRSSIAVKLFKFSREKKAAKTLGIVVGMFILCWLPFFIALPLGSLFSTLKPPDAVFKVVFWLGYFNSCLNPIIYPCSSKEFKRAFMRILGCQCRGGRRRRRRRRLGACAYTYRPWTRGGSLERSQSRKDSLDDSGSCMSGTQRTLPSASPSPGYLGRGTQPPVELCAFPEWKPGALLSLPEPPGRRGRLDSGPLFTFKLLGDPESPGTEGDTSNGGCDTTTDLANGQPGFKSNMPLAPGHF
Put plainly: Agonist contraction of smooth muscle tissue, rat spleen. The series is classed as cell-based. The following applies: rat spleen; read-out: Agonist Tissue Response (pD2) α1B (rat spleen) (converted).

Series [3] deals with T3, α1D (rat aorta) (Rattus norvegicus, UniProt P23944).
T3 construct: α1B (rat spleen) and α1D (rat aorta) receptors; from tissue; host or cells: rat aorta strips, endothelium removed
T3 sequence (P23944 1-561): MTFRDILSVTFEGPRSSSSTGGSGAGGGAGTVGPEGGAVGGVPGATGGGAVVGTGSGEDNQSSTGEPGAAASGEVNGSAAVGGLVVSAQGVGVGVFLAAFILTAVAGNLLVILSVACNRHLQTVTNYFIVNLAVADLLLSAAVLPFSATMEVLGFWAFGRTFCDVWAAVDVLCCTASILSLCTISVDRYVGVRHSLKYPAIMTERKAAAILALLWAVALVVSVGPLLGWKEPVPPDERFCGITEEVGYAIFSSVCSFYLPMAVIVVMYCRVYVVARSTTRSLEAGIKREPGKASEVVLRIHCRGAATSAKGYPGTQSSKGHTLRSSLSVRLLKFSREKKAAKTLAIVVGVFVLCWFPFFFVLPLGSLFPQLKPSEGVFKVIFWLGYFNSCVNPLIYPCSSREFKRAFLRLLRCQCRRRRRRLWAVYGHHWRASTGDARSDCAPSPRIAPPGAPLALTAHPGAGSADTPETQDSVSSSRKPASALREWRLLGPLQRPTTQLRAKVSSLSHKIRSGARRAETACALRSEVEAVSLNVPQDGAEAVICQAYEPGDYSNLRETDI
The series is described as follows: Agonist contraction of smooth muscle tissue, rat aorta. The series is classed as cell-based. To be noted: rat aorta, endothelium removed; for EC50: read-out: Agonist Tissue Response (pD2) α1D (rat aorta) (converted).

Series [4] concerns Anesthetized Dogs. Put plainly: Mean arterial pressure (MAP) in anesthetized dogs. The series is classed as in vivo, dog. To be noted: iv dose causing a maximum increase in MAP of 20 mm Hg, anesthetized female dogs. The method in brief: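 Female dogs (12–15 kg) with carotid telemetry implants, thiopental 15 mg/kg i.v. then isoflurane (2.5 to 3 volume %) anesthesia; increasing i.v. doses of agonist with return to baseline between doses. MAP from telemetered arterial pressure; ED20 = dose raising MAP by 20 mm Hg, compared with IUP ED5 as selectivity ratio.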

Where a name gives a salt, the structure may show the parent alone.

`CCS(=O)(=O)Nc1cccc2c1CCCC2c1c[nH]cn1.O=C(O)/C=C\C(=O)O` (single isomer, unassigned; (+)) [Example 33, (+)-N-[5-(1H-imidazol-4-yl)-5,6,7,8-tetrahydro-1-naphthalenyl]ethanesulfonamide, maleate]: in series [1], affinity was put at a Ki of 0.0468 µM. The EC50 was 3.8 µM in series [2] and greater than 1000 µM in series [3]. For the same compound, in series [4] (maleate), the “Mean MAP ED20” value is 34.0 nmol/kg.
In series [1], `CCS(=O)(=O)Nc1cccc2c1CCCC2c1c[nH]cn1.O=C(O)/C=C\C(=O)O` (single isomer, unassigned; (-)) [Example 34, (−)-N-[5-(1H-imidazol-4-yl)-5,6,7,8-tetrahydro-1-naphthalenyl]ethanesulfonamide, maleate] displayed a Ki of 1.3 µM. Moreover, in series [2], the EC50 was greater than 1000 µM. In series [3], the “Agonist Tissue Response (pD2) α1D (rat aorta)” value was less than 3.00. The “Mean MAP ED20” value in series [4] (maleate) is greater than 1000 nmol/kg.
Consider `CCS(=O)(=O)Nc1cccc2c1CCCC2c1c[nH]cn1.O=C(O)/C=C\C(=O)O` (stereo not drawn) [Example 12, N-[5-(1H-imidazol-4-yl)-5,6,7,8-tetrahydro-1-naphthalenyl]ethanesulfonamide, maleate], for which, in series [1], the Ki turned out to be 0.0959 µM. The EC50 in series [2] and in series [3] was greater than 1000 µM each time. The “Mean MAP ED20” value in series [4] was determined as 69.3 nmol/kg.
`CN(c1cccc2c1CCCC2c1c[nH]cn1)S(C)(=O)=O` (stereo not drawn) [Example 15, N-[5,6,7,8-tetrahydro-5-(1H-imidazol-4-yl)-1-naphthalenyl]-N-methylmethanesulfonmamide, maleate] gave an inhibitory constant (Ki) in series [1] of 0.204 µM. The EC50 in series [2] is 2.24 µM; in series [3], greater than 1000 µM. Also, the “Mean MAP ED20” value in series [4] came out at 225 nmol/kg.
For `O=C(Nc1cccc2c1CCCC2c1c[nH]cn1)C(F)(F)F` (stereo not drawn) [Example 17, 2,2,2-trifluoro-N-[5-(1H-imidazol-4-yl)-5,6,7,8-tetahydro-1-naphthalenyl]acetamide, maleate], in that order: 0.167 µM, 3.39 µM, greater than 1000 µM and 216 nmol/kg.
For `CS(=O)(=O)Nc1cccc(Cc2c[nH]cn2)c1.O=C(O)/C=C\C(=O)O` [Example 21, N-[3-(1H-imidazol-4-ylmethyl)phenyl]methanesulfonamide, maleate], in series [1], the Ki was determined as 0.361 µM. The EC50 in series [2] and in series [3] was greater than 1000 µM in each case. Besides, the “Mean MAP ED20” value in series [4] is 52.3 nmol/kg.
`COc1ccc(NS(C)(=O)=O)c2c1C(c1c[nH]cn1)CCC2` (stereo not drawn) [Example 26, N-[5,6,7,8-tetrahydro-(1H-imidazol-4-yl)-4-methoxyy-1-naphthalenyl]methanesulfonamide, maleate] registered a Ki in series [1] of 1.68 µM. In addition, the EC50 was 18.2 µM in series [2] and greater than 1000 µM in series [3]. The “Mean MAP ED20” value in series [4] is 1850 nmol/kg.
For `Cc1c(Cc2c[nH]cn2)cccc1NS(C)(=O)=O.O=C(O)/C=C\C(=O)O` [Example 28, N-[3-(1H-imidazol-4-ylmethyl)-2-methylphenyl]methanesulfonamide, maleate], in that order: 0.525 µM, 7.76 µM, greater than 1000 µM and 158 nmol/kg.
As to `CCS(=O)(=O)Nc1cccc(Cc2c[nH]cn2)c1C.O=C(O)/C=C\C(=O)O` [Example 29, N-[3-(1H-imidazol-4-ylmethyl)-2-methylphenyl]ethanesulfonamide, maleate], the Ki in series [1] was 0.258 µM. For the same compound, the EC50 in series [2] and in series [3] was greater than 1000 µM throughout. Besides, in series [4], the “Mean MAP ED20” value amounted to 202 nmol/kg.
`CC(c1cccc(NS(C)(=O)=O)c1)c1c[nH]cn1.O=C(O)/C=C\C(=O)O` (stereo not drawn) [Example 31, N-[3-[1-(1H-imidazol-4-yl)ethyl]phenyl]methanesulfonamide, maleate]: the affinity in series [1] corresponds to a Ki of 0.837 µM. In addition, the EC50 in series [2] and in series [3] was greater than 1000 µM in each case. In series [4], the “Mean MAP ED20” value was 234 nmol/kg.
In turn, `CS(=O)(=O)Nc1ccc(F)c2c1CCCC2c1c[nH]cn1.O=C(O)/C=C\C(=O)O` (stereo not drawn) [Example 44, N-[4-fluoro-5-(1H-imidazol-4-yl)-5,6,7,8-tetrahydro-1-naphthalenyl]methanesulfonamide, maleate] yielded a Ki in series [1] of 0.31 µM. The EC50 in series [2] and in series [3] was greater than 1000 µM each time. The “Mean MAP ED20” value in series [4] stood at 632 nmol/kg.
As to `C=C(c1cccc(NS(=O)(=O)CC)c1)c1c[nH]cn1` [Example 45, N-{3-[1-(1H-imidazol-4-yl)vinyl]phenyly}ethanesulfonamide, maleate], the Ki in series [1] was found to be 0.565 µM. In addition, the EC50 in series [2] and in series [3] was greater than 1000 µM in each case. The “Mean MAP ED20” value in series [4] was found to be 633 nmol/kg.

In general, Ki refers to a measure of affinity in units of concentration, obtained from inhibition or displacement. A low value points to a stronger hold on the target.
